The source of these data is patent publication US7326685B2, “Diagnostic or therapeutic somatostatin or bombesin analog conjugates and uses thereof” (The Administrators of the Tulane Educational Fund, priority 2001, dated 2008).

Read-outs that look alike come from different tables or passages of the source.

The conditions of data set [1]: cited from earlier work.
Data set [2] deals with neuroblastoma IMR-32 cells. In words: CellTiter 96 tumor cell proliferation assay. The data set is classed as cell-based. Conditions: conjugate compared to non-conjugated methotrexate. On the procedure: A CellTiter 96 cell proliferation kit was used according to the described protocols (Promega Corporation, Madison, Wis.)). Culture medium (50 μl) containing various concentrations of different peptides was added respectively in each well of the 96-well kit plates followed by 50 μl of a suspension containing 5,000 cultured IMR-32 tumor cells. The plate was incubated at 37° C. for different times up to and including 7 days in a humidified, 5% CO2 atmosphere. Kit dye solution (15 μl ) was added to each well and the plate incubated the plates at 37° C. for 4 hours in a humidified, 5% CO2 atmosphere. After 4 hours, 100 μl of the solubilization/stop solution were added to each well and incubation was continued at 37° C. for 1 hour or more until complete solubilization of the formazan crystals occurred. Absorbencies of individual well solutions were then measured at 570 nm wavelength using a 96 well plate reader.

For data set [3] the following is noted: cited from earlier work. The source holds these as a separate data set.
The conditions of data set [4]: 1×iv, mice; cited from earlier work.
For data set [5] the following is noted: ×5 in mice; cited from earlier work.
The target of data set [6] is GH release from primary cultures of rat pituitary cells (somatostatin subtype 2 rat receptor related system) (Rattus norvegicus, UniProt P30680). Put plainly: Inhibition of GH release from primary cultures of rat pituitary cells. The data set is classed as cell-based. To be noted: GH stimulated with 1 nM GRH(1-29)NH2, 3 h. How it is done: This is a primary system for evaluating SRIF analog potency and can be considered a somatostatin subtype 2 rat receptor related system which historically also correlates well with human subtype 2 binding.
Anterior pituitaries from adult male rats weighing 200-250 g and housed under controlled conditions (lights on from 0500-1900 h), are dispersed using aseptic techniques by a trypsin/DNase method. The dispersed cells are diluted with sterile-filtered Dulbecco's modified Eagle medium (MEM) (Gibco Laboratories, Grand Island, N.Y. (GIBCO)), which is supplemented with 2.5% fetal calf serum (GIBCO), 3% horse serum (GIBCO), 10% fresh rat serum (stored on ice for no longer than 1 h) from the pituitary donors, 1% MEM nonessential amino acids (GIBCO), gentamycin (10 ng/ml; Sigma), and nystatin (10,000 U/ml; GIBCO). The cells are counted with a hemacytometer (approximately 2,000,000 cells per pituitary) and randomly plated at a density of 200,000 cells per well (Co-star cluster 24; Rochester Scientific Co., Rochester, N.Y.). […]
In preparation for a hormone challenge, the cells are washed 3× with medium 199 (GIBCO) to remove old medium and floating cells. […] GH in plasma and media is measured by a standard double antibody RIA using components supplied by the NIDDK and the National Hormone and Pituitary Program.

For data set [7] the following is noted: rat, in vivo, ip.
Procedure: The solution was divided into three equal parts not exceeding 2 mL and injected intraperitoneally into each rat. Urine and feces were collected on an adsorbent pad overnight. At 24 hours, the rats were killed, dissected and each of the below organs were weighed and counted in a dose calibrator.

Chain of GH release from primary cultures of rat pituitary cells (somatostatin subtype 2 rat receptor related system) (P30680 whole entry): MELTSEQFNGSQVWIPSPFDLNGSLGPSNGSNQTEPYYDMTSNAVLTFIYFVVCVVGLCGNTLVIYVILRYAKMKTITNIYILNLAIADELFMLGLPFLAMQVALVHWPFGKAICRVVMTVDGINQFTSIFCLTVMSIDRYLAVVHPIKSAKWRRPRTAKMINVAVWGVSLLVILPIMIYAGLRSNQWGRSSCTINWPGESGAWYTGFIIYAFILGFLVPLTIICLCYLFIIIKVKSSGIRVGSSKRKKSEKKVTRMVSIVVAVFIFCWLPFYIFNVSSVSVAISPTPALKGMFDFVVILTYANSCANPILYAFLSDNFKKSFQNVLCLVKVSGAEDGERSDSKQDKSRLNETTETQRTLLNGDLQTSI

Consider `O=c1[nH]cc(F)c(=O)[nH]1` [Peptide 5-FU, 5-FU], for which, in data set [1] (×5 days), the MTD is 500 mg/m^2/day.
For `CC(=O)O[C@@]12CO[C@@H]1C[C@H](O)[C@@]1(C)C(=O)[C@H](O)C3=C(C)[C@@H](OC(=O)[C@H](O)[C@@H](NC(=O)OC(C)(C)C)c4ccccc4)C[C@@](O)([C@@H](OC(=O)c4ccccc4)[C@H]21)C3(C)C` [Docetaxel], the MTD in data set [1] (in vivo) is reported as 60-100 mg/m^2.
As for `CN(Cc1cnc2nc(N)nc(N)c2n1)c1ccc(C(=O)N[C@@H](CCC(=O)O)C(=O)O)cc1` [methotrexate], the “Inhibitory effects on proliferation of IMR-32 cells (potency comparison, FIG. 1)” value in data set [2] is listed as “equivalent potencies”. Further, the MTD in data set [1] (i.v. w/o leuco) is on record as less than 500 mg/m^2; in data set [1] (i.v.+leuco.) it was 15 gm/m^2.
As to `CC[C@@]1(O)C(=O)OCc2c1cc1n(c2=O)Cc2cc3c(CN(C)C)c(O)ccc3nc2-1` [topotecan], the MTD in data set [3] (in humans) is 1.5 mg/m^2/day. In data set [4], the LD10 is 75 mg/m^2.
With `Nc1ccn([C@@H]2O[C@H](CO)[C@@H](O)C2(F)F)c(=O)n1` [gemcitabine], the MTD in data set [1] (in vivo) is 1000 mg/m^2.
On to `COc1cc([C@@H]2c3cc4c(cc3[C@@H](O[C@@H]3O[C@@H]5CO[C@@H](C)O[C@H]5[C@H](O)[C@H]3O)[C@H]3COC(=O)[C@H]23)OCO4)cc(OC)c1O` [etoposide], for which the MTD in data set [3] (in man) is recorded as 100 mg/m^2.
Take `CCc1c2c(nc3ccc(OC(=O)N4CCC(N5CCCCC5)CC4)cc13)-c1cc3c(c(=O)n1C2)COC(=O)[C@]3(O)CC` [irinotecan]: in data set [1] (1×/wk depending on patient response), the MTD is on record as 50-150 mg/m^2.
On to `Nc1nc(F)nc2c1ncn2[C@@H]1O[C@H](COP(=O)(O)O)[C@@H](O)[C@@H]1O` [Fludarabine-P04], for which the MTD in data set [1] (×5 days) was 25 mg/m^2/day.
For `CC[C@]1(O)C[C@H]2CN(CCc3c([nH]c4ccccc34)[C@@](C(=O)OC)(c3cc4c(cc3OC)N(C=O)[C@H]3[C@@](O)(C(=O)OC)[C@H](OC(C)=O)[C@]5(CC)C=CCN6CC[C@]43[C@@H]65)C2)C1` [vincristine], the MTD in data set [1] (in vivo) is on record as 1.4 mg/m^2.
With `Nc1ccn([C@@H]2O[C@H](CO)[C@@H](O)[C@@H]2O)c(=O)n1` [cytarabine], the MTD in data set [1] (in vivo) was 100 mg/m^2/day.
For the molecule `CCC1=C[C@@H]2CN(C1)Cc1c([nH]c3ccccc13)[C@@](C(=O)OC)(c1cc3c(cc1OC)N(C)[C@H]1[C@@](O)(C(=O)OC)[C@H](OC(C)=O)[C@]4(CC)C=CCN5CC[C@]31[C@@H]54)C2` [vinorelbine], the MTD in data set [1] (in vivo) is 30 mg/m^2/wk.
On to `CCCCCOC(=O)Nc1nc(=O)n([C@@H]2O[C@H](C)[C@@H](O)[C@H]2O)cc1F` [capecitabine], for which the MTD in data set [1] (orally) is reported as 2.5 g/m^2.
In the case of `O=C1c2c(O)ccc(O)c2C(=O)c2c(NCCNCCO)ccc(NCCNCCO)c21` [mitoxantrone], the MTD in data set [1] (in vivo) is given as 12-14 mg/m^2.
`O=c1[nH]c(=O)n([C@H]2C[C@H](O)[C@@H](CO)O2)cc1F` [FUDR]: the MTD is listed as 0.6 mg/kg/day in data set [3] (in human i.a.) and 100 mg/kg in data set [5].
`NC(=O)NO` [Hydroxyurea]: the MTD in data set [3] (in man) was 35 mg/kg/day.
Usually IC50 stands for the concentration that inhibits the measured activity by half. For the molecule “D-Ser-D-Ser-D-Ser-D-Ser-D-Ser-L-Lys-D-Tyr-D-Ser-cyclo[L-Cys-L-Phe-D-Trp-L-Lys-L-Thr-L-Cys]-L-Thr-NH2 [JF-08-53]”, the IC50 in data set [6] was 0.086 nM. Further, the “Elimination of labeled peptide in urine and feces (FIG. 2)” value in data set [7] is “rapid and high efficiency elimination”.
For the molecule `N.N.O=C([O-])C1(C(=O)[O-])CCC1.[Pt+2]` [carbo-Pt], in data set [3] (in man), the MTD is 360 mg/m^2.
As for bleomycin, the MTD in data set [1] (in vivo) was 20 mg/m^2.
As for `NC(=O)c1ncn2c(=O)n(CCCl)nnc12` [mitozolomide], the MTD in data set [1] (in vivo) is reported as more than 400 mg/m^2.
Turning to `N.N.[Cl][Pt][Cl]` [Cis-Pt], in data set [3] (in man), the MTD is reported as 100 mg/m^2.
